Several values for one entry are separate records, joined by “and”; a condition that tells them apart may be missing. Equal values may be shown once. ± gives the expanded uncertainty stated by the source.
Experiments:
[1] = refractive index (Na D-line) (dimensionless); conditions: 101 kPa, Liquid, Standard Abbe refractometry
[2] = for viscosity / mass density: 101 kPa, Liquid; for viscosity: Capillary tube (Ostwald / Ubbelohde) method; for mass density: Vibrating tube method
[3] = xn = mol fraction of the nth substance listed; conditions: for viscosity / mass density: 101 kPa, Liquid; for viscosity: Capillary tube (Ostwald / Ubbelohde) method; for mass density: Vibrating tube method
[4] = refractive index (Na D-line) (dimensionless); xn = mol fraction of the nth substance listed; conditions: 101 kPa, Liquid, Standard Abbe refractometry, x2 = 0

CC(=O)[O-].CCn1cc[n+](C)c1 [1-ethyl-3-methylimidazolium acetate]
Conditions	mass density, [2] [kg/m3]	refractive index, [1]	viscosity, [2] [mPa·s]
288.15 K	1105.2 ± 1.4	1.50285 ± 0.00053	283.8 ± 8.9
298.15 K	1099.03 ± 1.4	1.50069 ± 0.00053	139 ± 3.1
308.15 K	1092.93 ± 1.3	1.49803 ± 0.00053	77.32 ± 1.3
318.15 K	1086.86 ± 1.3	1.49527 ± 0.00053	47.37 ± 0.73
328.15 K	1080.82 ± 1.3	1.49266 ± 0.00053	31.29 ± 0.48
338.15 K	1074.83 ± 1.3	1.48995 ± 0.00053	21.85 ± 0.33
348.15 K	1068.88 ± 1.3	1.48721 ± 0.00053	16.01 ± 0.24

[2], Wilhelmy plates
Conditions	surface tension liquid-gas
278.2 K	48.1 ± 0.8 mN/m
288.15 K	47.7 ± 0.8 mN/m
298.15 K	47.1 ± 0.8 mN/m
308.15 K	46.6 ± 0.8 mN/m and 46.1 ± 0.8 mN/m
318.15 K	46.1 ± 0.8 mN/m
328.15 K	45.9 ± 0.8 mN/m
338.15 K	45.4 ± 0.8 mN/m
348.15 K	45.1 ± 0.8 mN/m

CC(=O)[O-].CCn1cc[n+](C)c1 [1-ethyl-3-methylimidazolium acetate] + CO
surface tension liquid-gas [mN/m], [3], Wilhelmy plate
Conditions	x1 = 0.1	x1 = 0.2	x1 = 0.3	x1 = 0.4	x1 = 0.5	x1 = 0.6	x1 = 0.6999	x1 = 0.8003	x1 = 0.9003	x1 = 1
278.2 K	28.5 ± 0.6	32.7 ± 0.6	35.9 ± 0.6	38.4 ± 0.6	40.3 ± 0.7	42.1 ± 0.7	44.3 ± 0.7	45.9 ± 0.7	47.6 ± 0.7	48.1 ± 0.8
288.2 K	28.1 ± 0.6	32.1 ± 0.6	35.3 ± 0.6	38 ± 0.6	40 ± 0.7	41.6 ± 0.7	43.8 ± 0.7	45.1 ± 0.7	46.9 ± 0.7	47.7 ± 0.8
298.2 K	27.5 ± 0.6	31.6 ± 0.6	35 ± 0.6	37.5 ± 0.6	39.6 ± 0.7	41.1 ± 0.7	43.3 ± 0.7	44.7 ± 0.7	46.4 ± 0.7	47.1 ± 0.8
308.2 K	26.8 ± 0.6	31.1 ± 0.6	34.5 ± 0.6	37.1 ± 0.6	39 ± 0.7	40.8 ± 0.7	42.8 ± 0.7	44.2 ± 0.7	45.9 ± 0.7	46.6 ± 0.8
318.2 K	26.3 ± 0.6	30.6 ± 0.6	33.9 ± 0.6	36.5 ± 0.6	38.7 ± 0.6	40.4 ± 0.7	42.4 ± 0.7	43.9 ± 0.7	45.3 ± 0.7	46.1 ± 0.8

CO [methanol]
[2], Wilhelmy plate
Conditions	surface tension liquid-gas [mN/m]
278.2 K	23.8 ± 0.6
288.2 K	23.6 ± 0.6
298.2 K	22.7 ± 0.6
308.2 K	21.9 ± 0.6
318.2 K	21 ± 0.6

CO [methanol] + CC(=O)[O-].CCn1cc[n+](C)c1
[3], Wilhelmy plate, x2 = 0
Conditions	surface tension liquid-gas [mN/m]
278.2 K	23.8 ± 0.6
288.2 K	23.6 ± 0.6
298.2 K	22.7 ± 0.6
308.2 K	21.9 ± 0.6
318.2 K	21 ± 0.6

CCCO [propan-1-ol]
Conditions	mass density, [2] [kg/m3]	refractive index, [1]	viscosity, [2] [mPa·s]
288.15 K	807.55 ± 0.14	1.38694 ± 0.00035	2.506 ± 0.029
298.15 K	799.56 ± 0.14	1.38303 ± 0.00035	1.952 ± 0.023
308.15 K	791.46 ± 0.15	1.37914 ± 0.00035	1.545 ± 0.018
318.15 K	783.2 ± 0.15	1.375 ± 0.00035	1.238 ± 0.014
328.15 K	774.72 ± 0.16	1.37075 ± 0.00035	1.006 ± 0.012
338.15 K	765.98 ± 0.16	1.36667 ± 0.00035	0.824 ± 0.01
348.15 K	756.91 ± 0.16	1.36201 ± 0.00035	0.684 ± 0.008

[2], Wilhelmy plates
Conditions	surface tension liquid-gas [mN/m]
288.15 K	23.9 ± 0.6
298.15 K	23.4 ± 0.6
308.15 K	22.4 ± 0.6
318.15 K	22 ± 0.6
328.15 K	20.9 ± 0.6
338.15 K	19.7 ± 0.6
348.15 K	19 ± 0.6

CCCO [propan-1-ol] + CC(=O)[O-].CCn1cc[n+](C)c1
[3], Wilhelmy plates, x2 = 0
Conditions	surface tension liquid-gas [mN/m]
288.15 K	23.9 ± 0.6
298.15 K	23.4 ± 0.6
308.15 K	22.4 ± 0.6
318.15 K	22 ± 0.6
328.15 K	20.9 ± 0.6
338.15 K	19.7 ± 0.6
348.15 K	19 ± 0.6

[3], x2 = 0
Conditions	mass density [kg/m3]	viscosity [mPa·s]
288.15 K	807.55 ± 0.14	2.506 ± 0.029
298.15 K	799.56 ± 0.14	1.952 ± 0.023
308.15 K	791.46 ± 0.15	1.545 ± 0.018
318.15 K	783.2 ± 0.15	1.238 ± 0.014
328.15 K	774.72 ± 0.16	1.006 ± 0.012
338.15 K	765.98 ± 0.16	0.824 ± 0.01
348.15 K	756.91 ± 0.16	0.684 ± 0.008

[4]
Conditions	refractive index
288.15 K	1.38694 ± 0.00035
298.15 K	1.38303 ± 0.00035
308.15 K	1.37914 ± 0.00035
318.15 K	1.375 ± 0.00035
328.15 K	1.37075 ± 0.00035
338.15 K	1.36667 ± 0.00035
348.15 K	1.36201 ± 0.00035

CC(C)O [propan-2-ol]
Conditions	mass density, [2] [kg/m3]	refractive index, [1]	viscosity, [2] [mPa·s]
288.15 K	789.18 ± 0.19	1.37933 ± 0.00036	2.752 ± 0.033
298.15 K	780.84 ± 0.19	1.37517 ± 0.00036	2.018 ± 0.024
308.15 K	772.23 ± 0.19	1.37093 ± 0.00036	1.507 ± 0.018
318.15 K	763.27 ± 0.2	1.36643 ± 0.00036	1.15 ± 0.014
328.15 K	753.89 ± 0.2	1.36173 ± 0.00036	0.895 ± 0.011
338.15 K	744.02 ± 0.2	1.35682 ± 0.00036	0.704 ± 0.009

[2], Wilhelmy plates
Conditions	surface tension liquid-gas [mN/m]
288.15 K	21.6 ± 0.6
298.15 K	21.2 ± 0.6
308.15 K	20.5 ± 0.6
318.15 K	19.6 ± 0.6
328.15 K	18.7 ± 0.6
338.15 K	17.4 ± 0.6

CC(C)O [propan-2-ol] + CC(=O)[O-].CCn1cc[n+](C)c1
[3], Wilhelmy plates, x2 = 0
Conditions	surface tension liquid-gas [mN/m]
288.15 K	21.6 ± 0.6
298.15 K	21.2 ± 0.6
308.15 K	20.5 ± 0.6
318.15 K	19.6 ± 0.6
328.15 K	18.7 ± 0.6
338.15 K	17.4 ± 0.6

[3], x2 = 0
Conditions	mass density [kg/m3]	viscosity [mPa·s]
288.15 K	789.18 ± 0.19	2.752 ± 0.033
298.15 K	780.84 ± 0.19	2.018 ± 0.024
308.15 K	772.23 ± 0.19	1.507 ± 0.018
318.15 K	763.27 ± 0.2	1.15 ± 0.014
328.15 K	753.89 ± 0.2	0.895 ± 0.011
338.15 K	744.02 ± 0.2	0.704 ± 0.009

[4]
Conditions	refractive index
288.15 K	1.37933 ± 0.004
298.15 K	1.37517 ± 0.004
308.15 K	1.37093 ± 0.004
318.15 K	1.36643 ± 0.004
328.15 K	1.36173 ± 0.004
338.15 K	1.35682 ± 0.004
